According to paper PMC12477080, “Polychlorinated biphenyls (PCBs) interact with drug metabolism in vivo” (Archives of Toxicology, 2025):

Tests used:
[1] = molecular target: T1, Human CYP1A2 (Homo sapiens, UniProt P05177); test: In vitro metabolism by CYP1A2 Supersomes; assay type: in vitro ADME; settings: 10 µM substrate, 50 pmol/mL CYP1A2 supersomes, 2 mM NADPH; 1 h (phenacetin), 1 and 4 h (PCB118)
T1 construct: purchased; host or cells: insect cells
T1 sequence (P05177 2-516 limits assumed): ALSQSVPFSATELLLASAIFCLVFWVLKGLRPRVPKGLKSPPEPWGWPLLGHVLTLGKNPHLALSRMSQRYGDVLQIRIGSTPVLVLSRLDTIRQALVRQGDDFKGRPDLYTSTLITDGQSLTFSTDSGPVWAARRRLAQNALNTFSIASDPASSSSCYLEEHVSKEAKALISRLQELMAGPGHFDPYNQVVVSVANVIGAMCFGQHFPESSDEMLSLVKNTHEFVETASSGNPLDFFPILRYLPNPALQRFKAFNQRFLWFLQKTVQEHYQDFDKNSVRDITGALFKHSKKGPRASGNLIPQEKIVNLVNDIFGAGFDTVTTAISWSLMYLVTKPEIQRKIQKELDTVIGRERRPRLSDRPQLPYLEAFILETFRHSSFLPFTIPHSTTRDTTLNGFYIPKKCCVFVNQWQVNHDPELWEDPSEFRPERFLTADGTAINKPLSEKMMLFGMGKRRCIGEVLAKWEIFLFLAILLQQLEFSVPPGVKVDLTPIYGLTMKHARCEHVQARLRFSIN
Method: To investigate the metabolism of PCB118 by CYP1A2, incubation assays were conducted using CYP1A2 supersomes in a total reaction volume of 100 µL. Reaction mixtures were assembled on ice. […] Reactions were initiated by the addition of CYP1A2 supersomes.
To assess potential non-enzymatic transformations and confirm NADPH-dependent metabolism, control incubations were performed under the following conditions: buffer and enzyme only (no-substrate control), substrate, buffer, and NADPH without enzyme (no-enzyme control), and substrate, buffer, and enzyme without NADPH (no-NADPH control). Each experimental condition was conducted in triplicate, while control conditions were performed as single replicates.
The resulting supernatants (100 µL) were transferred to LC–MS vials, yielding samples with 80% methanol content for analysis. For the detection of hydroxylated PCB metabolites, reactions were stopped by adding 500 µL methanol, followed by the addition of 50 µL of an internal standard mix (10 ng/mL). Samples were vortexed for 1 min and centrifuged at 4,500 rpm for 10 min. The resulting supernatants were transferred to glass LC vials and evaporated under a nitrogen stream at 45 °C until approximately 50 µL remained. Samples were then reconstituted in 100 µL of 0.1 M ammonium acetate buffer (pH 5.3) before transfer to inserts for LC–MS analysis.
To determine whether PCB118 serves as a substrate for CYP1A2 and could act as a competitive inhibitor for other CYP1A2 substrates, we conducted in vitro metabolism experiments. […] In parallel, CYP1A2-mediated metabolism of PCB118 was assessed. […] The identity of 4-OH-CB107 was verified by comparison with an authentic reference standard, showing identical retention time and spectral characteristics (supplemental Fig. 1).

[2] = test system: CYP2B6; test: CYP phenotyping cocktail clinical study: efavirenz/8-OH-efavirenz metabolic ratio and its association with PCB plasma levels; settings: linear regression of MR AUC0–8 h 8-OH-efavirenz/efavirenz (CYP2B6 activity) on PCB plasma concentration
Method: The participants were ascertained not to have any acute disease by medical history, physical examination, laboratory screening, including hematological and biochemical blood tests, and a 12-lead electrocardiogram. […] The demographic data of the subjects are summarized in Table 1 in the supplemental data. At the enrollment visit, 2 blood samples (9 ml each) were collected into ethylenediaminetetraacetic acid (EDTA)-containing tubes taken from each subject for analyzing the plasma concentrations of PCB congeners and for pharmacogenetic analysis.
Participants stayed fasted from the evening before until 3 h after drug administration. After that, a meal was provided. Water and juice were permitted but alcoholic and caffeinated beverages were not allowed from the evening before drug administration until the last blood sample was taken on the next day. Venous blood samples (9 ml each) were collected through an intravenous catheter immediately before and 0.25, 0.5, 0.75, 1, 1.5, 2, 2.5, 3, 4, 5, 6, 7, 8, and 24 h after drug administration. Blood was drawn into EDTA-coated tubes, centrifuged at 1500 g for 10 min at 4 °C, and plasma samples were subsequently stored at − 80 °C until further analysis. After completely voiding the bladder immediately before drug administration, the participants collected urine from 0 to 24 h after drug administration. After weighing the collected urine, a 10 ml aliquot of each fraction was taken.
Commercially sourced standards and internal standards were used for quantification (see Supplemental Materials). In brief, 20 µl of the plasma samples were protein-precipitated with 80 µl methanol containing all internal standards or were treated for 16 h at 37 °C with 2 µl β-glucuronidase (1,000,000 Units) for deconjugation before protein precipitation with 78 µl methanol containing internal standards. Samples were centrifuged for 20 min, at 4 °C and 17,000 × g, and 40 µl of the supernatants were diluted with 40 µl LC–MS grade water, centrifuged again for 5 min at 4 °C and 17,000 × g and 50 µl supernatant were transferred to LC–MS vials 5 µl of the samples were injected into the LC–MS system.
An Agilent 1290 Infinity II UHPLC coupled with a SCIEX QTRAP6500 + triple quadrupole mass spectrometer was used. Chromatographic separation was achieved on an Agilent Poroshell 120 EC-C18 (1.9 µm, 2.1 × 50 mm) column with A: 0.1% formic acid in water and B: methanol with a flow rate of 0.7 ml/min and a total run time of 8.5 min. Analytes were eluted using a gradient program. The following gradient steps represent gradual changes in % B over time: 5% B from 0 to 0.2 min, 30% B at 2 min, 34% B at 4.8 min, 95% B at 6.5 min, 95% B at 7.5 min and re-equilibrating to 5% B at 7.7 min and 5%B till 8.5 min. A representative chromatogram is shown in supplemental Fig. 2. The scheduled MRM mode was applied for analyte detection in both positive and negative ESI modes (Supplementary Table 4). Calibration curves were constructed with linear regression using weighted (1/x^2) models (detailed information in supplemental methods).
Partial areas under the plasma concentration–time curves from 0 to 3 h (AUC0–3 h), from 0 to 4 h (AUC0–4 h), and from 0 to 8 h (AUC0–8 h) were calculated based on measured concentrations by the linear trapezoidal rule without extrapolation. […] Metabolic ratios (MR) were calculated by dividing the partial AUC of the metabolite by the respective partial AUC of the parent drug. The MRs were used as biomarkers for the individual CYP activities of the study subjects.

[3] = test system: CYP1A2 mRNA; test: CYP1A2 mRNA expression in primary human hepatocytes (qRT-PCR); assay type: cell-based; settings: three donors, 48 h exposure, PCB118 0.1–0.5 µM, omeprazole positive control

Q: How did the “CYP1A2-mediated metabolism of the substrate” value [1] turn out when `Clc1ccc(-c2cc(Cl)c(Cl)cc2Cl)cc1Cl` [PCB118] was run?
A: Its value is “catalyzed the hydroxylation of PCB118, leading to the formation of 4-OH-CB107”.

Q: What about the t value [2] of the same molecule?
A: Its t value is 1,020.

Q: What about the “β (standardized regression coefficient)” value [2] of the same molecule?
A: The value was 0,255.

Q: And the t value ([2]; PM excl)?
A: Its t value is 0,839.

Q: And the “β (standardized regression coefficient)” value ([2]; PM excl)?
A: The value was 0,227.

Q: What about the “effect on CYP1A2 mRNA expression” value [3] of the same molecule?
A: The value was “did not significantly alter CYP1A2 mRNA levels”.
